Values joined by “and” are separate entries in the source; they are usually repeats but may differ in a detail not shown here. Identical values can stand only once.
Biological target: T1, human TAS2R1 (Homo sapiens, UniProt Q9NYW7)
T1 construct: expressed in transfected cells; host or cells: HEK293T-Gα16gust44
T1 sequence (Q9NYW7 1-299): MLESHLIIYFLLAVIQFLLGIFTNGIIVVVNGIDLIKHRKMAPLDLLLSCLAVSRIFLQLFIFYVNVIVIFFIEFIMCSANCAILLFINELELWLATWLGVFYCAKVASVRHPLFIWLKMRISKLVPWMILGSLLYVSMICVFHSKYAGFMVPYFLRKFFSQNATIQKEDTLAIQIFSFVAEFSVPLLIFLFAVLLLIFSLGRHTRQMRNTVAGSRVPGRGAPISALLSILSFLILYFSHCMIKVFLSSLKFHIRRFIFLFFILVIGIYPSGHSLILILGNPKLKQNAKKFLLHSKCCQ
Test: Calcium imaging assay (FLIPR), HEK293T-Gα16gust44 cells transfected with human TAS2R1
Type: cell-based
Protocol: This set of bile acids was chosen because of their commercial availability in high purities, their diversity within the class of bile acids and their previous detection and quantitation in human blood. Stock solutions were prepared in DMSO.
As basal growth medium for the HEK293T-Gα16gust44 cell line[17],[59] served Dulbecco’s modified eagle medium (DMEM) (Thermo Fisher Scientific, Darmstadt, Germany) supplemented with 10 % fetal bovine serum (Sigma-Aldrich, Steinheim, Germany), 2 mM L-glutamine (Sigma-Aldrich, Steinheim, Germany), 100 units/ml penicillin (Sigma Aldrich, Steinheim, Germany) and 100 µg/ml streptomycin (Sigma Aldrich, Steinheim, Germany). Growth conditions were 37 °C, 5 % CO2 and saturated air-humidity[60].
HEK293T-Gα16gust44 cells were seeded on poly-D-lysine (10 µg/ml) coated 96-well plates to reach a confluence of 40-60 % the next day. For transient transfection 150 ng of plasmid DNA containing the receptor of interest and 0.3 µl lipofectamine 2000 (Thermo Fisher Scientific, Darmstadt, Germany) per well were used and transfection took place according to the manual of lipofectamine 2000. […] The empty vector DNA (mock) was transfected as negative control[14],[41].
Cells were loaded using the calcium-sensitive fluorescent dye Fluo-4-AM (Abcam, Cambridge, Great Britain) in the presence of 2.5 mM probenecid (Sigma-Aldrich, Steinheim, Germany) the day after transfection[13],[41]. 1 h after loading, cells were washed with C1 buffer using a BioTek Cell Washer, incubated in the dark for half an hour and washed again. For automated agonist application and measurement of fluorescence changes, a FLIPR^TETRA device (Molecular Devices, San José, United States) was used. Viability of cells was tested by application of 100 nM Somatostatin 14 (Bachem, Bubendorf, Switzerland)[42].
Measured data were negative control corrected by subtracting the signal of the mock-transfected cells and exported to Microsoft Excel using the FLIPR software ScreenWorks 4.2. In Microsoft Excel software, standardization of maximum fluorescence intensities to the basal fluorescence and normalization to the buffer-only control was done to calculate the relative fluorescence changes (ΔF/F).
Initial screening experiments performed in duplicate wells were confirmed by at least one replication and representative traces were selected for display. All dose-response relationships were determined by three independent experiments (biological replicates) performed in duplicates (technical replicates). Threshold concentrations, defined as lowest substance concentrations leading to statistically significant elevated fluorescence changes in receptor-transfected cells compared with empty vector-transfected cells, were determined using SigmaPlot with Student’s t-test to evaluate statistical significance (p < 0.01).

C[C@H](CCC(=O)NCCS(=O)(=O)O)[C@H]1CC[C@H]2[C@@H]3[C@H](O)C[C@@H]4C[C@H](O)CC[C@]4(C)[C@H]3C[C@H](O)[C@]12C [Taurocholic Acid, taurocholic acid]
Efficacy = maximal amplitude (ΔF/F) (TAS2R1, bile acids, mean): 0.09987 | Efficacy (maximal amplitude ΔF/F), individual data points (TAS2R1, bile acids, single replicates, listed as TCA): 0.08896 and 0.09306 and 0.1176 | RLU (Time 0 s (second time grid)): 0 RLU | RLU (Time 2 s): 7.952 RLU | RLU (Time 4 s): 20.145 RLU | RLU (Time 6 s): -3.167 RLU | RLU (Time 8 s): -1.092 RLU | RLU (Time 12 s): 4.801 RLU | RLU (Time 14 s): 10.0652 RLU | RLU (Time 16 s): -4.025 RLU | RLU (Time 18 s): 30.6672 RLU | RLU (Time 18.781 s): -8.288 RLU | RLU (Time 20.781 s): 38.1129 RLU | RLU (Time 22.781 s): 36.5466 RLU | RLU (Time 24.781 s): 100.781 RLU | RLU (Time 26.781 s): 94.321 RLU | RLU (Time 28.781 s): 128.096 RLU | RLU (Time 30.781 s): 168.752 RLU | RLU (Time 32.781 s): 222.063 RLU | RLU (Time 34.781 s): 248.838 RLU | RLU (Time 36.781 s): 287.098 RLU | RLU (Time 38.781 s): 303.962 RLU | RLU (Time 40.781 s): 295.88 RLU | RLU (Time 42.781 s): 354.401 RLU | RLU (Time 44.781 s): 378.941 RLU | RLU (Time 46.781 s): 349.497 RLU | RLU (Time 48.781 s): 364.135 RLU | RLU (Time 50.781 s): 379.282 RLU | RLU (Time 52.781 s): 390.659 RLU | RLU (Time 54.781 s): 392.471 RLU | RLU (Time 56.781 s): 396.221 RLU | RLU (Time 58.781 s): 410.391 RLU | RLU (Time 60.781 s): 390.107 RLU | RLU (Time 62.781 s): 396.638 RLU | RLU (Time 64.781 s): 407.599 RLU | RLU (Time 66.781 s): 435.147 RLU | RLU (Time 68.781 s): 406.802 RLU | RLU (Time 70.781 s): 400.242 RLU | RLU (Time 72.781 s): 418.773 RLU | RLU (Time 74.781 s): 413.176 RLU | RLU (Time 76.781 s): 422.764 RLU | RLU (Time 78.781 s): 402.418 RLU | RLU (Time 80.781 s): 440.793 RLU | RLU (Time 82.781 s): 428.932 RLU | RLU (Time 84.781 s): 402.626 RLU | RLU (Time 86.781 s): 438.62 RLU | RLU (Time 88.781 s): 435.97 RLU | RLU (Time 90.781 s): 417.798 RLU | RLU (Time 92.781 s): 396.047 RLU | RLU (Time 94.781 s): 416.808 RLU | RLU (Time 96.781 s): 401 RLU | RLU (Time 98.781 s): 382.662 RLU | RLU (Time 100.781 s): 386.609 RLU | RLU (Time 102.781 s): 391.574 RLU | RLU (Time 104.781 s): 343.693 RLU | RLU (Time 106.781 s): 334.229 RLU | RLU (Time 108.781 s): 318.822 RLU | RLU (Time 110.781 s): 359.901 RLU | RLU (Time 112.781 s): 338.629 RLU | RLU (Time 114.781 s): 327.9 RLU | RLU (Time 116.781 s): 308.179 RLU | RLU (Time 118.781 s): 311.101 RLU | RLU (Time 120.781 s): 314.431 RLU | RLU (Time 122.781 s): 288.825 RLU | RLU (Time 124.781 s): 292.111 RLU | RLU (Time 126.781 s): 280.428 RLU | RLU (Time 128.781 s): 264.252 RLU | RLU (Time 130.781 s): 247.5 RLU | RLU (Time 132.781 s): 279.196 RLU | RLU (Time 134.781 s): 263.266 RLU | RLU (Time 136.781 s): 260.122 RLU | RLU (Time 137.547 s): 257.068 RLU | RLU (Time 143.547 s): 228.429 RLU | RLU (Time 149.547 s): 221.043 RLU | RLU (Time 155.547 s): 204.711 RLU | RLU (Time 161.547 s): 175.173 RLU | RLU (Time 167.547 s): 178.916 RLU | RLU (Time 173.547 s): 141.583 RLU | RLU (Time 179.547 s): 150.852 RLU | RLU (Time 185.547 s): 123.705 RLU | RLU (Time 191.547 s): 70.5412 RLU | RLU (Time 197.547 s): 46.3148 RLU | RLU (Time 203.547 s): 75.6277 RLU | RLU (Time 209.547 s): 55.0459 RLU | RLU (Time 215.547 s): 35.7219 RLU | RLU (Time 221.547 s): 50.9362 RLU | RLU (Time 227.547 s): 33.794 RLU | RLU (Time 233.547 s): 65.6166 RLU | RLU (Time 239.547 s): 27.332 RLU | RLU (Time 245.547 s): 17.8718 RLU | RLU (Time 293.547 s): -10.6071 RLU | RLU (Time 299.547 s): -16.6248 RLU | RLU (calcium trace, sheet TAS2R1, Time 305.547 s): -3.144 RLU | RLU (calcium trace, sheet TAS2R1, Time 311.547 s): 2.9951 RLU | RLU (calcium trace, sheet TAS2R1, Time 317.547 s): -15.9144 RLU | RLU (calcium trace, sheet TAS2R1, Time 323.547 s): -10.1142 RLU | RLU (calcium trace, sheet TAS2R1, Time 329.547 s): 11.6208 RLU | RLU (calcium trace, sheet TAS2R1, Time 335.547 s): 11.3706 RLU | RLU (calcium trace, sheet TAS2R1, Time 341.547 s): 7.052 RLU | RLU (calcium trace, sheet TAS2R1, Time 347.547 s): 31.851 RLU | RLU (calcium trace, sheet TAS2R1, Time 353.547 s): 3.282 RLU | RLU (calcium trace, sheet TAS2R1, Time 359.547 s): 34.6741 RLU | Δ F/F (conc. 0,01 mM, TAS2R1): 0.007126 | Δ F/F (conc. 0,1 mM, TAS2R1): 0.04642 | Δ F/F (conc. 0,03 mM, TAS2R1): 0.01897 | Δ F/F (conc. 0,3 mM, TAS2R1): 0.09987 | Δ F/F (conc. 0,001 mM, TAS2R1): 0.004203 | Δ F/F (conc. 0,003 mM, TAS2R1): 0.00592 | Activation threshold concentration TAS2R1 (lowest concentration with significantly increased fluorescence vs empty vector (p < 0.01)): 100 µM and 100.00 µM
